Article PMC6009942, “Synthesis and molecular docking studies of some 4-phthalimidobenzenesulfonamide derivatives as acetylcholinesterase and butyrylcholinesterase inhibitors” (Journal of Enzyme Inhibition and Medicinal Chemistry, 2016)

What was measured:
[1] = target: T1, BuChE (E.C.3.1.1.8., from equine serum) (Equus caballus, UniProt P81908); assay: BuChE inhibition, modified Ellman colorimetric method; type: biochemical; details: pH 8.0, 5-min incubation, mean ± SEM of triplicate independent experiments
T1 construct: BuChE (E.C.3.1.1.8., from equine serum); purchased Sigma-Aldrich (Steinheim, Germany); host or cells: equine serum
T1 sequence (P81908 whole entry): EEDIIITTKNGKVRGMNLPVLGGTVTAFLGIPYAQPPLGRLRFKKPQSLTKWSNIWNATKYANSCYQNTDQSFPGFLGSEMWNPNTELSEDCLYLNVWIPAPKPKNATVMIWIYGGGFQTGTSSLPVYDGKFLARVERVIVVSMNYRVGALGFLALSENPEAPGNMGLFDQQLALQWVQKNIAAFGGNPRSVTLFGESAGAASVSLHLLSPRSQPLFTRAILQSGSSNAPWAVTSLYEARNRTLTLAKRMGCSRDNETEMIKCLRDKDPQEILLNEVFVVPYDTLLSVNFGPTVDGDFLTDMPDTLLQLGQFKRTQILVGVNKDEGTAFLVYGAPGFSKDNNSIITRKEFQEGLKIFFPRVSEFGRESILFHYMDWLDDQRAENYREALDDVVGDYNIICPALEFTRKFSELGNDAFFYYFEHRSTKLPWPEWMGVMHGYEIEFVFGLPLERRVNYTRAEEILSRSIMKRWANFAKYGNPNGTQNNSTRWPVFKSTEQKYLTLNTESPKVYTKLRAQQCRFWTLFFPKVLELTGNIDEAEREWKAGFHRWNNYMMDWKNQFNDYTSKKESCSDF
From the text: (§1) AChE (E.C.3.1.1.7., Type VI-S, from electric eel) and BuChE (E.C.3.1.1.8., from equine serum) were purchased from Sigma-Aldrich (Steinheim, Germany). 5,5′-Dithiobis(2-nitrobenzoic acid) (DTNB, Ellman’s reagent) acetylthiocholine iodide (AChI) and butyrylthiocholine iodide (BChI) used as substrates were obtained from Fluka. Buffer compounds (potassium dihydrogen phosphate, potassium hydroxide) and sodium hydrogen carbonate were purchased from Merck (Darmstadt, Germany). Spectrophotometric measurements were performed on a Shimadzu 160-A UV-Vis spectrophotometer.
(§2) The inhibitory effects of the synthesized compounds on AChE and BuChE were evaluated using a slightly modified colorimetric method of Ellman et al., with galantamine as the reference compound[41–45]. Prior to use, all solutions were adjusted to 20 °C. Enzyme solution (100 μL) and inhibitor solution (100 μL) were added into a cuvette containing the phosphate buffer (3.0 mL, 0.1 M; pH 8.0). After 5-min incubation, required aliquots of the DTNB solution (100 μL) and of the AChI/BChI (20 μL) were added. After rapid and immediate mixing, the absorption was measured at 412 nm by UV spectroscopy. As a reference, an identical solution of the enzyme without the inhibitor is processed following the same protocol. The blank reading contained 3.0 mL buffer, 200 μL water, 100 μL DTNB and 20 μL substrate. The enzyme activity was determined in the presence of at least five different concentrations of an inhibitor. Each concentration was assayed in triplicate. The samples were investigated immediately after preparation.
(§3) Inhibitory activities of the synthesized compounds against AChE and BuChE were evaluated by modified Ellman method, using galantamine as the reference compound[41–45]. The AChE inhibitory activity was determined by using electric eel acetylcholinesterase and the BuChE inhibitory activity was tested by using equine serum butyrylcholinesterase.

[2] = target: T2, AChE (E.C.3.1.1.7., Type VI-S, from electric eel) (Electrophorus electricus, UniProt O42275); assay: AChE inhibition, modified Ellman colorimetric method; type: biochemical; details: pH 8.0, 5-min incubation, mean ± SEM of triplicate independent experiments
T2 construct: purchased Sigma-Aldrich (Steinheim, Germany) Type VI-S
T2 sequence (O42275 24-633): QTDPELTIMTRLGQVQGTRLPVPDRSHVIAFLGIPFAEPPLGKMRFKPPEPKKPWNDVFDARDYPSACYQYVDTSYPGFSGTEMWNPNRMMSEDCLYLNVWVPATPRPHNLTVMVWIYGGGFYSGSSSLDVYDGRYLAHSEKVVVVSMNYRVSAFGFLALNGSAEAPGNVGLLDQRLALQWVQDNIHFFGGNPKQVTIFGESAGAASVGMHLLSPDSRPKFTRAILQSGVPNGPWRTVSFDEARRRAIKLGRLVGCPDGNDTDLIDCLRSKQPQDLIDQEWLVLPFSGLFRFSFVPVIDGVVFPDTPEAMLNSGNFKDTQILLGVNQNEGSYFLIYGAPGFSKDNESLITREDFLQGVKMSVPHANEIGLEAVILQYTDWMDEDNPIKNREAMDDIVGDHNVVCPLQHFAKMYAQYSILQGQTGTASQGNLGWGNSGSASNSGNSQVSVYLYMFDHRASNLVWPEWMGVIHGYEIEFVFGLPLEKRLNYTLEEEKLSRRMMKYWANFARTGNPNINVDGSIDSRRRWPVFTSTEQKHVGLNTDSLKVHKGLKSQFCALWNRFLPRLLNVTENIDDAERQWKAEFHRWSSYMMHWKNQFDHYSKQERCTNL
From the text: as §1, §2, §3

Row | SMILES | IC50 [1] | IC50 [2]
1 | Cc1ccc(NS(=O)(=O)c2ccc(N3C(=O)c4ccccc4C3=O)cc2)cc1 [Compound 4, 4-(1,3-Dioxoisoindolin-2-yl)-N-(p-tolyl)benzenesulfonamide] | 85 ± 13.7 µM | 8.61 ± 0.18 µM
2 | O=C1c2ccccc2C(=O)N1c1ccc(S(=O)(=O)N2CCCC2)cc1 [Compound 8, 2-(4-(Pyrrolidin-1-ylsulfonyl)phenyl)isoindoline-1,3-dione] | > 100 µM | > 100 µM
3 | COc1ccccc1NS(=O)(=O)c1ccc(N2C(=O)c3ccccc3C2=O)cc1 [Compound 2, 4-(1,3-Dioxoisoindolin-2-yl)-N-(2-methoxyphenyl)benzenesulfonamide] | 44.2 ± 13.4 µM | 6.79 ± 0.41 µM
4 | CC(C)c1ccccc1NS(=O)(=O)c1ccc(N2C(=O)c3ccccc3C2=O)cc1 [Compound 3, 4-(1,3-Dioxoisoindolin-2-yl)-N-(2-isopropylphenyl)benzenesulfonamide] | 13.4 ± 0.62 µM | 8.19 ± 0.13 µM
5 | O=C1c2ccccc2C(=O)N1c1ccc(S(=O)(=O)N2CCOCC2)cc1 [Compound 11, 2-(4-(Morpholinosulfonyl)phenyl)isoindoline-1,3-dione] | 56.7 ± 3.26 µM | 7.95 ± 0.22 µM
6 | CCN(CC)S(=O)(=O)c1ccc(N2C(=O)c3ccccc3C2=O)cc1 [Compound 7, 4-(1,3-Dioxoisoindolin-2-yl)-N,N-diethylbenzenesulfonamide] | > 100 µM | 1.35 ± 0.08 µM
7 | CC1CCCCN1S(=O)(=O)c1ccc(N2C(=O)c3ccccc3C2=O)cc1 (stereo not shown) [Compound 10, 2-(4-((2-Methylpiperidin-1-yl)sulfonyl)phenyl)isoindoline-1,3-dione] | 75.2 ± 23.8 µM | 8.05 ± 0.54 µM
8 | Cc1ccccc1NS(=O)(=O)c1ccc(N2C(=O)c3ccccc3C2=O)cc1 [Compound 1, 4-(1,3-Dioxoisoindolin-2-yl)-N-(o-tolyl)benzenesulfonamide] | 74.4 ± 2.34 µM | 6.84 ± 0.17 µM
9 | COc1ccc(NS(=O)(=O)c2ccc(N3C(=O)c4ccccc4C3=O)cc2)cc1 [Compound 5, 4-(1,3-Dioxoisoindolin-2-yl)-N-(4-methoxyphenyl)benzenesulfonamide] | 87.2 ± 13.2 µM | 8.52 ± 0.18 µM
10 | O=C1c2ccccc2C(=O)N1c1ccc(S(=O)(=O)Nc2ccc(Cl)cc2)cc1 [Compound 6, 4-(1,3-Dioxoisoindolin-2-yl)-N-(4-chlorophenyl)benzenesulfonamide] | 78.1 ± 5.39 µM | 8.21 ± 0.14 µM
11 | O=C1c2ccccc2C(=O)N1c1ccc(S(=O)(=O)N2CCCCC2)cc1 [Compound 9, 2-(4-(Piperidin-1-ylsulfonyl)phenyl)isoindoline-1,3-dione] | > 100 µM | 10.4 ± 0.61 µM
